What was measured:
[1] = biological target: hKv1.3 (Homo sapiens, UniProt P22001); experiment: hKv1.3 % inhibition; type: cell-based; settings: for inhibition at 1 µM: read-out: hKv1.3 % inh. 1 uM
[2] = biological target: hKv1.5 (Homo sapiens, UniProt P22460); experiment: hKv1.5 % inhibition; type: cell-based; settings: for inhibition at 0.3 µM: read-out: hKv1.5 % inh. 300 nM
Chain of hKv1.5 (P22460 whole entry): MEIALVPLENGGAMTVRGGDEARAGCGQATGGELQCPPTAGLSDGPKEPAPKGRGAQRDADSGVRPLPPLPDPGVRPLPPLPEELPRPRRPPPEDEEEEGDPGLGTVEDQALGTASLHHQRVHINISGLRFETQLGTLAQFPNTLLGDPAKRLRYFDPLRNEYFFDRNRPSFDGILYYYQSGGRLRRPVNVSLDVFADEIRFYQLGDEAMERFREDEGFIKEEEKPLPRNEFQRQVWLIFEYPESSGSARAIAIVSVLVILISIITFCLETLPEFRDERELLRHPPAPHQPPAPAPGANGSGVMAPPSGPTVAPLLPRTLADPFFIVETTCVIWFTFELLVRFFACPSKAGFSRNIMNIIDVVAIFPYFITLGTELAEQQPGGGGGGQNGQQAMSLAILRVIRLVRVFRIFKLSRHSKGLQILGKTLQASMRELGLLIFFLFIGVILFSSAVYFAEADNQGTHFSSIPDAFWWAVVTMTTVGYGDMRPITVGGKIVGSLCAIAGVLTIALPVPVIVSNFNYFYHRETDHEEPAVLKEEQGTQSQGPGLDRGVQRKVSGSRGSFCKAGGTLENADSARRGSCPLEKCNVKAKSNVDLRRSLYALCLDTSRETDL

Chain of hKv1.3 (P22001 whole entry): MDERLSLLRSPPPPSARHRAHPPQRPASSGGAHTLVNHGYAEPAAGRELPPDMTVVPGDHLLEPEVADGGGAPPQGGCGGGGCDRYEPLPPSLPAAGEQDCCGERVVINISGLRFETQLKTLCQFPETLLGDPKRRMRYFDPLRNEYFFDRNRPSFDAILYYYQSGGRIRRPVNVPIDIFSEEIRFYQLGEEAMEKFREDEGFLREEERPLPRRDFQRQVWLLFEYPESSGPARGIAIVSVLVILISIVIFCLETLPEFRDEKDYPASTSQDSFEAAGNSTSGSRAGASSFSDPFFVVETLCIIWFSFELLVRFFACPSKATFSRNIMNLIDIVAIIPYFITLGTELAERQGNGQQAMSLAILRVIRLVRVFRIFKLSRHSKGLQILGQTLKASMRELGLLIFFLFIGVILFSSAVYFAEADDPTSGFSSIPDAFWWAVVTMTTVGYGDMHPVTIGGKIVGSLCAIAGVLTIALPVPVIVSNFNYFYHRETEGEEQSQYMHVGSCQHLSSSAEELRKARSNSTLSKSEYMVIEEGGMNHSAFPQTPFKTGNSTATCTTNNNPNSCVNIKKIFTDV

Compound | hKv1.3 % inh. 1 uM [1] | hKv1.5 % inh. 300 nM [2] | inhibition at 1 µM [1] | inhibition at 0.3 µM [2]
1-Methyl-1H-pyrazole-3-sulfonic acid (4-chloro-benzyl)-[1-(3-methoxy-propionyl)-2,3-dihydro-1H-indol-6-yl]-amide [Example 2] | 99.1% |  |  | 
1-Methyl-1H-pyrazole-3-sulfonic acid benzyl-[2-(2-cyano-acetyl)-1,2,3,4-tetrahydro-isoquinolin-6-yl]-amide [Example 9] | 71.6% | 27.6% |  | 
1-Methyl-1H-pyrazole-3-sulfonic acid benzyl-[2-(2-methoxy-acetyl)-1,2,3,4-tetrahydro-isoquinolin-6-yl]-amide [Example 18] | 51.1% | 34.6% |  | 
1-Methyl-1H-pyrazole-3-sulfonic acid benzyl-[2-(3-methoxy-propionyl)-1,2,3,4-tetrahydro-isoquinolin-6-yl]-amide [Example 12] | 64.3% | 41.7% |  | 
1-Methyl-1H-pyrazole-3-sulfonic acid benzyl-[2-(pyridine-2-carbonyl)-1,2,3,4-tetrahydro-isoquinolin-6-yl]-amide [Example 17] | 54.8% | 36.7% |  | 
COCC(=O)N1CCc2ccc(N(Cc3ccc(Cl)cc3)S(=O)(=O)c3ccn(C)n3)cc21 [Example 1, 1-Methyl-1H-pyrazole-3-sulfonic acid (4-chloro-benzyl)-[1-(2-methoxy-acetyl)-2,3-dihydro-1H-indol-6-yl]-amide] |  |  | 100% | 92.1%
CC(=O)N1CCc2ccc(N(Cc3ccc(Cl)cc3)S(=O)(=O)c3ccn(C)n3)cc21 [Example 3, 1-Methyl-1H-pyrazole-3-sulfonic acid (1-acetyl-2,3-dihydro-1H-indol-6-yl)-(4-chloro-benzyl)-amide] |  |  | 98% | 89.5%
CC(=O)N1CCc2cc(N(Cc3ccc(Cl)cc3)S(=O)(=O)c3ccn(C)n3)ccc21 [Example 4, 1-Methyl-1H-pyrazole-3-sulfonic acid (1-acetyl-2,3-dihydro-1H-indol-5-yl)-(4-chloro-benzyl)-amide] |  |  | 91.3% | 86.1%
COCCC(=O)N1CCc2cc(N(Cc3ccc(Cl)cc3)S(=O)(=O)c3ccn(C)n3)ccc21 [Example 5, 1-Methyl-1H-pyrazole-3-sulfonic acid (4-chloro-benzyl)-[1-(3-methoxy-propionyl)-2,3-dihydro-1H-indol-5-yl]-amide] |  |  | 90.7% | 65.2%
Cn1cnc(S(=O)(=O)N(Cc2ccc(Cl)cc2)c2ccc3c(c2)NCC3)c1 [Example 6, 1-Methyl-1H-imidazole-4-sulfonic acid (4-chloro-benzyl)-(2,3-dihydro-1H-indol-6-yl)-amide] |  |  | 85.4% | 37.1%
Cn1ccc(S(=O)(=O)N(Cc2ccc(Cl)cc2)c2ccc3c(c2)CCN3C(=O)CC#N)n1 [Example 7, 1-Methyl-1H-pyrazole-3-sulfonic acid (4-chloro-benzyl)-[1-(2-cyano-acetyl)-2,3-dihydro-1H-indol-5-yl]-amide] |  |  | 77.2% | 48.3%
CC(=O)N1CCc2cc(N(Cc3ccc(Cl)cc3)S(=O)(=O)c3cn(C)cn3)ccc2C1 [Example 8, 1-Methyl-1H-imidazole-4-sulfonic acid(2-acetyl-1,2,3,4-tetrahydro-isoquinolin-6-yl)-(4-chlorobenzyl)-amide] | 73.3% | 25.2% |  | 
CC(=O)N1CCc2cc(N(Cc3ccccc3)S(=O)(=O)c3ccn(C)n3)ccc2C1 [Example 10, 1-Methyl-1H-pyrazole-3-sulfonic acid (2-acetyl-1,2,3,4-tetrahydro-isoquinolin-6-yl)-benzyl-amide] |  |  | 67.2% | 37.5%
COCCC(=O)N1CCc2ccc(N(Cc3ccc(Cl)cc3)S(=O)(=O)c3cn(C)cn3)cc21 [Example 11, 1-Methyl-1H-imidazole-4-sulfonic acid (4-chloro-benzyl)-[1-(3-methoxy-propionyl)-2,3-dihydro-1H-indol-6-yl]-amide] |  |  | 65.6% | 20.9%
COCC(=O)N1CCc2cc(N(Cc3ccc(Cl)cc3)S(=O)(=O)c3ccn(C)n3)ccc21 [Example 13, 1-Methyl-1H-pyrazole-3-sulfonic acid (4-chloro-benzyl)-[1-(2-methoxy-acetyl)-2,3-dihydro-1H-indol-5-yl]-amide] |  |  | 64.2% | 66.6%
COCC(=O)N1CCc2cc(N(Cc3ccc(Cl)cc3)S(=O)(=O)c3cn(C)cn3)ccc2C1 [Example 14, 1-Methyl-1H-imidazole-4-sulfonic acid (4-chloro-benzyl)-[2-(2-methoxy-acetyl)-1,2,3,4-tetrahydro-isoquinolin-6-yl]-amide] |  |  | 62.7% | 32.1%
Cn1cnc(S(=O)(=O)N(Cc2ccc(Cl)cc2)c2ccc3c(c2)CCN3)c1 [Example 15, 1-Methyl-1H-imidazole-4-sulfonic acid (4-chloro-benzyl)-(2,3-dihydro-1H-indol-5-yl)-amide] |  |  | 61.1% | 20.5%
COCCC(=O)N1CCc2cc(N(Cc3ccc(Cl)cc3)S(=O)(=O)c3cn(C)cn3)ccc2C1 [Example 16, 1-Methyl-1H-imidazole-4-sulfonic acid (4-chloro-benzyl)-[2-(3-methoxy-propionyl)-1,2,3,4-tetrahydro-isoquinolin-6-yl]-amide] |  |  | 57.5% | 32.2%
Cn1cnc(S(=O)(=O)N(Cc2ccc(Cl)cc2)c2ccc3c(c2)CCN(C(=O)CO)C3)c1 [Example 19, 1-Methyl-1H-imidazole-4-sulfonic acid (4-chloro-benzyl)-[2-(2-hydroxy-acetyl)-1,2,3,4-tetrahydro-isoquinolin-6-yl]-amide] |  |  | 49.5% | 16.2%
Cn1cnc(S(=O)(=O)N(Cc2ccc(Cl)cc2)c2ccc3c(c2)CCN(C(=O)CC#N)C3)c1 [Example 20, 1-Methyl-1H-imidazole-4-sulfonic acid (4-chloro-benzyl)-[2-(2-cyano-acetyl)-1,2,3,4-tetrahydro-isoquinolin-6-yl]-amide] |  |  | 48.5% | 13.4%

Source: patent US8426442B2, “Compounds” (Xention Ltd, priority 2009, dated 2013)
